Data taken from ChEMBL document CHEMBL1201862, “PubChem BioAssay data set” (2004).
Calls of active or inactive are those of the source.

Assays:
[1] = molecular target: Ras and Rab interactor 1/Tyrosine-protein kinase ABL1 (Homo sapiens, UniProt P00519+Q13671); assay type: functional;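 further: biochemical TR-FRET dose-response test measuring inhibition of binding between Rin1 and Abl proteins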
[2] = Shn3 3'UTR reporter inhibitors, dose response, cell-based, Clone20 osteoblasts, firefly luciferase, cherry-picked (AID 624132); assay type: functional;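 further: firefly luciferase luminescence from reporter carrying the Shn3 3'UTR in osteoblasts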
[3] = control 3'UTR Renilla luciferase suppression, dose response, counter-screen for Shn3 inhibitor project, cell-based, Clone20-Shn3RL, cherry-picked (AID 624133); assay type: functional
Protein Wnt-3a = Protein Wnt-3a (Mus musculus, UniProt P27467); experiment: Wnt3a-driven reporter signaling inhibition, dose response, selectivity assay for Gli-SUFU antagonist project, Wnt-LIGHT cells, luminescence (AID 651570); assay type: functional; details: read-out: IC50_Mean;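 further: Wnt-LIGHT reporter cells stimulated with conditioned medium from Wnt3a-producing cells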
Chain of Protein Wnt-3a (P27467 whole entry): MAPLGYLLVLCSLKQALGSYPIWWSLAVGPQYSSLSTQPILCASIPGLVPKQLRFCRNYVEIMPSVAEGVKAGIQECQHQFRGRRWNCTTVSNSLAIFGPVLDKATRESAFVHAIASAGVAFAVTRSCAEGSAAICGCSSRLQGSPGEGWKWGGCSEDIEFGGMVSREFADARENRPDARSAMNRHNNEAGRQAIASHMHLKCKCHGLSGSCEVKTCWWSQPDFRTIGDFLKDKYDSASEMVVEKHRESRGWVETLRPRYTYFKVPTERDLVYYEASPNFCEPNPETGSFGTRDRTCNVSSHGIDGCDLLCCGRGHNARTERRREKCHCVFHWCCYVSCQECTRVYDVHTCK

[4] = Luminescence Cell-Based Dose Confirmation HTS to Identify Activators of 5'UTR Stem-Loop Driven Alpha-Synuclein mRNA Translation in H4 Neuroglioblastoma Cells. [Related pubchem assays: 1829 (Project Summary), 1814 (Primary HTS)]; assay type: functional
[5] = Luminescence Cell-Based Dose Response HTS to Identify Activators of Luciferase Translation or Activity in H4 […] Cells. [Related pubchem assays: 1829 (Project Summary), 1814 (Primary HTS)]; assay type: functional
H4 = experiment: Luminescence Cell-Based Dose Response HTS to Identify Activators of 5'UTR Stem-Loop Driven Prion Protein mRNA Translation in H4 Neuroglioblastoma Cells. [Related pubchem assays: 1829 (Project Summary), 1814 (Primary HTS)]; assay type: functional; details: Homo sapiens
[6] = molecular target: T1, Sentrin-specific protease 8 (Homo sapiens, UniProt Q96LD8); experiment: SENP8 protease inhibitors, SAR follow-up, biochemical, luminescence (AID 504501); assay type: functional
T1 sequence (Q96LD8 whole entry): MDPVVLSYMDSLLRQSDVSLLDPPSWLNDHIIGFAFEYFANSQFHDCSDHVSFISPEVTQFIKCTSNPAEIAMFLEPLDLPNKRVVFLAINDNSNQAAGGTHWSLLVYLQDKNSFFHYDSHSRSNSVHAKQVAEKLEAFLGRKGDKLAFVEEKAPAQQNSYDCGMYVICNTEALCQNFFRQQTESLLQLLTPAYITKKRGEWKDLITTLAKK

Caspase-3 = molecular target: T2, Caspase-3 (Homo sapiens, UniProt P42574); experiment: SAR Analysis of small molecule inhibitors of Sentrin-specific proteases (SENPs) using a Caspase-3 Selectivity assay. [Related pubchem assays (depositor defined):AID2540, AID2599, AID434973, AID489001]; assay type: functional
T2 sequence (P42574 whole entry): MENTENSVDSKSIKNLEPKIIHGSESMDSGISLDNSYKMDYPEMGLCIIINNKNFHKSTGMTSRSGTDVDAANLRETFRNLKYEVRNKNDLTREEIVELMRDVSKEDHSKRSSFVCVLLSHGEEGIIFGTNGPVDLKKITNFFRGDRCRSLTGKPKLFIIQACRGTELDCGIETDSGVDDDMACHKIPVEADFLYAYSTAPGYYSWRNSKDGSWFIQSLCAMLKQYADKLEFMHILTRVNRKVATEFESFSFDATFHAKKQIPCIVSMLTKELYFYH

[7] = molecular target: T3, Sentrin-specific protease 6 (Homo sapiens, UniProt Q9GZR1); experiment: SAR Analysis of small molecule inhibitors of Sentrin-specific protease 6 (SENP6) using a Luminescent assay. [Related pubchem assays (depositor defined):AID2582, AID2599]; assay type: functional
T3 sequence (Q9GZR1 whole entry): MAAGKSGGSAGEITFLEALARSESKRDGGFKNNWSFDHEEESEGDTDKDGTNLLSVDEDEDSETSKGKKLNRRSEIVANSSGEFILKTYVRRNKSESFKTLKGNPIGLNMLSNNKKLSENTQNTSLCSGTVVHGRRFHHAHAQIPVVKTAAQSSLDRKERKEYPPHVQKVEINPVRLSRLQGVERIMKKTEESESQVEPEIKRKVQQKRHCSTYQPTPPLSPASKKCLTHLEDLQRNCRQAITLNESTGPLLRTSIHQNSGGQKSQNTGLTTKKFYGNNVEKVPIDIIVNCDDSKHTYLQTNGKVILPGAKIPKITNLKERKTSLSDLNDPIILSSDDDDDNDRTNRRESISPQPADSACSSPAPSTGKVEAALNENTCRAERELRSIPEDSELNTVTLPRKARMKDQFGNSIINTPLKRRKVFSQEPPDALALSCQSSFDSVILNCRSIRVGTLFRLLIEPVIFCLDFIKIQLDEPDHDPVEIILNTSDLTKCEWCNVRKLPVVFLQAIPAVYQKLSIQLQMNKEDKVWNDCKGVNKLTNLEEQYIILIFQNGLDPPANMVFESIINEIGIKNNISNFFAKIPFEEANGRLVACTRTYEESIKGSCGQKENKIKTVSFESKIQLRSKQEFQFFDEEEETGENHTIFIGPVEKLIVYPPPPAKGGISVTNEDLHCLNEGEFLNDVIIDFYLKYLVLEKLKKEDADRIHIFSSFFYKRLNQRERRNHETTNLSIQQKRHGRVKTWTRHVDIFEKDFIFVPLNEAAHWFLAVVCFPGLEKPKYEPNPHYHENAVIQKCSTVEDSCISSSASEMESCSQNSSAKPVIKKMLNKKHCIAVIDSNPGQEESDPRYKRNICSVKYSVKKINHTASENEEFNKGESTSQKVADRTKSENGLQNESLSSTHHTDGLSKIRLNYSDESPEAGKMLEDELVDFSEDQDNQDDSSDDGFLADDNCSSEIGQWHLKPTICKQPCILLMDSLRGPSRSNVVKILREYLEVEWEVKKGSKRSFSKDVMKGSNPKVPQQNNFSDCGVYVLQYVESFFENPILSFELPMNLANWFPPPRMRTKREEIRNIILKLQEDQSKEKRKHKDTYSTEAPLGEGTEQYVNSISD

[8] = molecular target: T4, High affinity choline transporter 1 (Homo sapiens, UniProt Q9GZV3); experiment: CHT inhibitors, dose response, cell-based, 5-point CRC, membrane potential dye (AID 504840); assay type: functional
T4 sequence (Q9GZV3 whole entry): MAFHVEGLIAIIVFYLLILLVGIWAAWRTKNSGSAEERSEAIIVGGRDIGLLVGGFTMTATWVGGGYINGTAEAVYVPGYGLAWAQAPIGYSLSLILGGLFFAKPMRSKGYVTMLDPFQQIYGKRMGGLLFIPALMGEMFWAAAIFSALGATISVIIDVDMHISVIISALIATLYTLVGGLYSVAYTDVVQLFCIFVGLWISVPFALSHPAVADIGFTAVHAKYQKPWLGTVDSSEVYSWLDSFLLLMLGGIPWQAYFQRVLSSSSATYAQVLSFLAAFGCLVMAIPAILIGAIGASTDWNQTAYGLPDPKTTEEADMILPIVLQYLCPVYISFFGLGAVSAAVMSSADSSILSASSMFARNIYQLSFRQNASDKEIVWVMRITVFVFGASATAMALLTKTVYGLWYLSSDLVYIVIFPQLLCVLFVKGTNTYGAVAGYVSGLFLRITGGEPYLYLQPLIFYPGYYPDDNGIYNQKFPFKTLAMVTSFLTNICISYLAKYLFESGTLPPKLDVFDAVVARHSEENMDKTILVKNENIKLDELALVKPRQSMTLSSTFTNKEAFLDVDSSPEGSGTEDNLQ

[9] = molecular target: T4, High affinity choline transporter 1; experiment: CHT inhibitors, dose response, cell-based, 10-point CRC, membrane potential dye (AID 588401); assay type: functional;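 further: membrane potential dye fluorescence of choline-evoked depolarization via CHT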
[10] = HepG2 cell cytotoxicity, dose response, cytotoxicity control for Shn3 inhibitor project, CellTiter-Glo, cherry-picked (AID 624134); assay type: functional, cell-based
[11] = molecular target: T5, DNA repair and recombination protein RAD54-like (Homo sapiens, UniProt Q92698); experiment: inhibitors of human RAD54 branch migration, confirmation, biochemical, fluorescence, cherry-picked samples, dose series (AID 651657); assay type: functional
T5 sequence (Q92698 whole entry): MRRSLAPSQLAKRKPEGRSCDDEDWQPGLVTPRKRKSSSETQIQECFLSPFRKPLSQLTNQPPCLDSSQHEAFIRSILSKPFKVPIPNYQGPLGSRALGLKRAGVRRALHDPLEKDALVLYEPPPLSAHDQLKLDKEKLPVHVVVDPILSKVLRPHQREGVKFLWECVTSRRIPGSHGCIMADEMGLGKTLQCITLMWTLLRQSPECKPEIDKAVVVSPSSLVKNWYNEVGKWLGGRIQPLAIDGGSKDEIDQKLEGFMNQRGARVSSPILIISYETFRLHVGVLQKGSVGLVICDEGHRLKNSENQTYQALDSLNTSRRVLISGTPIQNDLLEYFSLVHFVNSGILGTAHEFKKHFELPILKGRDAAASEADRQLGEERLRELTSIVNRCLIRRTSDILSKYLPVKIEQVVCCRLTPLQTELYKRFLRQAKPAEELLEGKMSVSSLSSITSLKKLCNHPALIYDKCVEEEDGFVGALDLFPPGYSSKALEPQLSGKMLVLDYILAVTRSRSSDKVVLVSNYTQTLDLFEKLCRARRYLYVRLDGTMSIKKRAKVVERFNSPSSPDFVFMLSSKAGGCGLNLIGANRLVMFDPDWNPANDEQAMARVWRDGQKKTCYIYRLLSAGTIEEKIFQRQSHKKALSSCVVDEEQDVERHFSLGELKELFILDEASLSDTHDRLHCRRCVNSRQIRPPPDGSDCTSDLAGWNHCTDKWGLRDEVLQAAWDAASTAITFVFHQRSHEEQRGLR

[12] = molecular target: T6, DNA repair protein RAD52 homolog (Homo sapiens, UniProt P43351); assay type: functional, biochemical
T6 sequence (P43351 whole entry): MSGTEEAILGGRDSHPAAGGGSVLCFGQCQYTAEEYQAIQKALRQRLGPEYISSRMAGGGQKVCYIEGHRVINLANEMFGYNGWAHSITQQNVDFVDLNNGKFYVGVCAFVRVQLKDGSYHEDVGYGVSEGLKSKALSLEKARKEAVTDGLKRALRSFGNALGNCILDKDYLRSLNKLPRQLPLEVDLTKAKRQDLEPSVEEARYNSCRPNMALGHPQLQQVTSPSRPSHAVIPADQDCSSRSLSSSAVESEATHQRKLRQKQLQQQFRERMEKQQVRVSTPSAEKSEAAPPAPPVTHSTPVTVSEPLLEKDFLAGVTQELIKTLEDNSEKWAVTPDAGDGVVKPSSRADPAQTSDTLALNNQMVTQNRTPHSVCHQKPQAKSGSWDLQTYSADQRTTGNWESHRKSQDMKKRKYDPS

[13] = molecular target: T7, Short transient receptor potential channel 4 (Mus musculus, UniProt Q9QUQ5); experiment: mouse TRPC4 channel inhibitors, dose response, cell-based, HEK293 TRPC4/mu-opioid, Fluo-4 calcium (AID 434942); assay type: functional;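 further: potency of inhibitors blocking the TRPC4 calcium response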
T7 sequence (Q9QUQ5 whole entry): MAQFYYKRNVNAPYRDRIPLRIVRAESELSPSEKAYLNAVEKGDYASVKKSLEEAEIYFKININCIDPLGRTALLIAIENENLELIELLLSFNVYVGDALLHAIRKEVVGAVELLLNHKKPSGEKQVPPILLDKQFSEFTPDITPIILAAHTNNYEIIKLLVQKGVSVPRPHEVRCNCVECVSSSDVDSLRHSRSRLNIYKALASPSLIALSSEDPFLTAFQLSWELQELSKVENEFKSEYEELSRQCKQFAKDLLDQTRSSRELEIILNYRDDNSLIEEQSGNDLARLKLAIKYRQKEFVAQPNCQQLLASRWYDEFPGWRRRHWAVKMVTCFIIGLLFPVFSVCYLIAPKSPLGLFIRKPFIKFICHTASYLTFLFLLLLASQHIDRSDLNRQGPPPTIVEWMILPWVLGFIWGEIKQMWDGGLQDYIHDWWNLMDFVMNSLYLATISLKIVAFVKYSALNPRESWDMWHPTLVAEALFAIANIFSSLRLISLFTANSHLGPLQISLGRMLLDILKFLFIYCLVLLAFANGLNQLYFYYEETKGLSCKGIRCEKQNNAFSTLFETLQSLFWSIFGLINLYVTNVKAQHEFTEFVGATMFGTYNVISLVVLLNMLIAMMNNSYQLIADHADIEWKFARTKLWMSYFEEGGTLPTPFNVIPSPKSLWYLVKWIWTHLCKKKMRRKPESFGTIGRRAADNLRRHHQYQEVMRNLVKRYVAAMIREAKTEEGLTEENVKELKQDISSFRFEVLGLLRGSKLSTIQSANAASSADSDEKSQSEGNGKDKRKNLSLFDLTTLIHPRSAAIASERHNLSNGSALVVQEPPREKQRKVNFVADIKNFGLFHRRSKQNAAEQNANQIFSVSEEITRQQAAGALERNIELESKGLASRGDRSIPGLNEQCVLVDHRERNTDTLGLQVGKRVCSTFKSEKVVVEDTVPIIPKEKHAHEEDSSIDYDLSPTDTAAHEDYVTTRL

Chain of Ras and Rab interactor 1/Tyrosine-protein kinase ABL1 (P00519 whole entry): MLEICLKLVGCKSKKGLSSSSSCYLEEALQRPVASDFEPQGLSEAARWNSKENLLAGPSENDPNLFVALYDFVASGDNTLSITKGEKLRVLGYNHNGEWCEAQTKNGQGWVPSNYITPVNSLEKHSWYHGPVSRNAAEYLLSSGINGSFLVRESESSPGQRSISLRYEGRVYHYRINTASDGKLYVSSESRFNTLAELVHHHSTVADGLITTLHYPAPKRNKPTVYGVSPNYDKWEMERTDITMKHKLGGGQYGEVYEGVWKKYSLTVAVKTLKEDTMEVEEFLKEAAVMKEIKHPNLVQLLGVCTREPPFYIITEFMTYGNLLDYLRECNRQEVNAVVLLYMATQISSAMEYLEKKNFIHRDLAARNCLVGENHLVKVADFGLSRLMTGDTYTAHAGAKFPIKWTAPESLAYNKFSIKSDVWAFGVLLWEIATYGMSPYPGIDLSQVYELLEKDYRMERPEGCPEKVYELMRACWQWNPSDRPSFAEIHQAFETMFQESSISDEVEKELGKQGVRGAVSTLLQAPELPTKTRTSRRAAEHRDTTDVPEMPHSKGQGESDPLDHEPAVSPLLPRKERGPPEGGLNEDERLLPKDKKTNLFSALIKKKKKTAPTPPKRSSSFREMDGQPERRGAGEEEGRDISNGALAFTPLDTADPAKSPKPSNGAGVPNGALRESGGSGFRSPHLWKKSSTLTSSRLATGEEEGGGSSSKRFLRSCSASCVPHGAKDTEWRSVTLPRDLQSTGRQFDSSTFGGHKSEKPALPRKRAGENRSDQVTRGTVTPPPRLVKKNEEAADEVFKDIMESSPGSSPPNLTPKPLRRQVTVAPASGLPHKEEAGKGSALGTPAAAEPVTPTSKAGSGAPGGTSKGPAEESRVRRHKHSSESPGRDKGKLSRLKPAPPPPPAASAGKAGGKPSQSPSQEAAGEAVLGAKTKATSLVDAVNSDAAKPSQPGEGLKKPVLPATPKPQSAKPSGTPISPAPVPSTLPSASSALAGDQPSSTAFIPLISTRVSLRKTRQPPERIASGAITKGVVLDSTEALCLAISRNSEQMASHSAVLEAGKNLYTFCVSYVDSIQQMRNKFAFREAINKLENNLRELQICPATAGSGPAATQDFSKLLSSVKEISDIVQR
Chain of Ras and Rab interactor 1/Tyrosine-protein kinase ABL1 (Q13671 whole entry): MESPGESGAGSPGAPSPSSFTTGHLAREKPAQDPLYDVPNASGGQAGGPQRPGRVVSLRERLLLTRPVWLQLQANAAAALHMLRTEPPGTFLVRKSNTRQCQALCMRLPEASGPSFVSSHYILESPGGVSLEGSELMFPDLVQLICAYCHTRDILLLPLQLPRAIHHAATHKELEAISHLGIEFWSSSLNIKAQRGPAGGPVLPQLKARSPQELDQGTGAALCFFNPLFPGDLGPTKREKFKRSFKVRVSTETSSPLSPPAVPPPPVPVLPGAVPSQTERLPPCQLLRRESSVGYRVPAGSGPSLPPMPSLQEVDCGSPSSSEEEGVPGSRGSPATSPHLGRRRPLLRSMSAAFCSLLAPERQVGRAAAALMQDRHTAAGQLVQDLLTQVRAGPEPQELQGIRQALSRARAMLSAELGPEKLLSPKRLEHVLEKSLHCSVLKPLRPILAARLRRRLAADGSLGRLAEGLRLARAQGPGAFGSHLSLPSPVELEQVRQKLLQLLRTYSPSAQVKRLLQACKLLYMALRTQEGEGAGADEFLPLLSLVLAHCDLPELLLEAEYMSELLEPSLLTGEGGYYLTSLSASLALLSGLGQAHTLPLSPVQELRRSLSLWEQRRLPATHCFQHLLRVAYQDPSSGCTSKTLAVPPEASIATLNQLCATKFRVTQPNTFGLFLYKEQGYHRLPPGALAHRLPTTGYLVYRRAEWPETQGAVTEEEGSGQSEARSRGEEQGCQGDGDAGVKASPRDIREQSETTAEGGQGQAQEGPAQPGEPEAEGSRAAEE

CCCc1ncc(CN2CCC(C(=O)Nc3cccc(-c4cscn4)c3)CC2)cn1
IC50 [1]: 22.3 µM (inactive)

O=C(Cn1cc(C(=O)C2CC2)c2ccccc21)Nc1ccccc1Cl
AC50 [2]: 3.42 µM (active) | AC50 [3]: 4.12 µM (active) | IC50 (Protein Wnt-3a): 5.2 µM (active)

CC(=O)Nc1ccc(/C=C/c2n[nH]c(-c3ccccc3O)n2)cc1
EC50 [4]: 2.79 µM (active) | EC50 [5]: 13.6 µM (active) | EC50 (H4): 1.33 µM (active) | IC50 [6]: > 99 µM (inactive) | IC50 (Caspase-3): 30 µM (active) | IC50 [7]: > 99 µM (inactive)

CC(NC(=O)NC1CCCCC1)c1ccc2c(c1)OCO2 (centres undefined)
IC50 [8]: 3.47 µM (active) | IC50 [9]: 2.57 µM (active)

COc1ccc(N(C)S(=O)(=O)c2cccc(C(=O)NC3CCCCC3C)c2)cc1 (centres undefined)
IC50 [8]: 4.79 µM (active) | IC50 [9]: 7.08 µM (active)

Cc1cc(C)nc(SCC(=O)Nc2ccc(N3CCOCC3)c(Cl)c2)n1
AC50 [2]: 1.66 µM (active) | AC50 [10]: > 70 µM (inactive) | AC50 [3]: 3.13 µM (active) | IC50 (Protein Wnt-3a): 5.24 µM (active)

CCCN1CCN(CCCN=C(S)Nc2ccc3nc(N4CCN(CC)CC4)cc(C)c3c2)CC1
IC50 [8]: 2.3 µM (active) | IC50 [9]: 2.67 µM (active) | AC50 [11]: 25.8 µM (active) | AC50 [12]: 1.71 µM (active)

Cc1c(C(=O)NCC(c2ccco2)N(C)C)oc2c(Cl)cccc12 (centres undefined)
EC50 [13]: 0.267 µM (active) | IC50 [1]: 5.07 µM (active)
